Source: ChEMBL document CHEMBL5505958, “Optimization of sequence and chiral content enhances therapeutic potential of tilapia piscidin peptides” (Eur J Med Chem, 2024)
In brackets after ≈: the same amount, converted by molar mass.

What was measured:
Vibrio vulnificus [1] = assay: Bactericidal activity against Vibrio vulnificus 204 assessed as inhibition of bacterial growth incubated for 16 to 20 hrs in presence of human serum; type: functional; settings: time 16-20 hrs
Salmonella enterica [2] = assay: Bactericidal activity against Salmonella enterica 15455 assessed as inhibition of bacterial growth incubated for 16 to 20 hrs; type: functional; settings: time 16-20 hrs
Enterococcus faecalis [3] = assay: Antibacterial activity against Enterococcus faecalis 10066 assessed as inhibition of bacterial growth incubated for 16 to 20 hrs; type: functional; settings: time 16-20 hrs
Vibrio vulnificus [4] = assay: Bactericidal activity against Vibrio vulnificus 204 assessed as inhibition of bacterial growth incubated for 16 to 20 hrs; type: functional; settings: time 16-20 hrs
Salmonella enterica [5] = assay: Antibacterial activity against Salmonella enterica 15455 assessed as inhibition of bacterial growth incubated for 16 to 20 hrs in presence of human serum; type: functional; settings: time 16-20 hrs
Acinetobacter baumannii [6] = assay: Antibacterial activity against Acinetobacter baumannii 10591 assessed as inhibition of bacterial growth incubated for 16 to 20 hrs; type: functional; settings: time 16-20 hrs
Enterococcus faecium [7] = assay: Bactericidal activity against Enterococcus faecium 10067 assessed as inhibition of bacterial growth incubated for 16 to 20 hrs; type: functional; settings: time 16-20 hrs
Staphylococcus aureus [8] = assay: Antibacterial activity against Staphylococcus aureus 10780 assessed as inhibition of bacterial growth incubated for 16 to 20 hrs; type: functional; settings: time 16-20 hrs
Klebsiella aerogenes [9] = assay: Bactericidal activity against Enterobacter aerogenes 15630 assessed as inhibition of bacterial growth incubated for 16 to 20 hrs; type: functional; settings: time 16-20 hrs
Klebsiella pneumoniae [10] = assay: Bactericidal activity against Klebsiella pneumoniae BAA 2473 assessed as inhibition of bacterial growth incubated for 16 to 20 hrs; type: functional; settings: time 16-20 hrs
Escherichia coli [11] = assay: Antibacterial activity against Escherichia coli 10675 assessed as inhibition of bacterial growth incubated for 16 to 20 hrs; type: functional; settings: time 16-20 hrs
[12] = tested on: Staphylococcus haemolyticus; assay: Bactericidal activity against Staphylococcus haemolyticus 15237 assessed as inhibition of bacterial growth incubated for 16 to 20 hrs; type: functional; settings: time 16-20 hrs
Enterococcus faecium [13] = assay: Antibacterial activity against Enterococcus faecium 10067 assessed as inhibition of bacterial growth incubated for 16 to 20 hrs; type: functional; settings: time 16-20 hrs
Vibrio vulnificus [14] = assay: Antibacterial activity against Vibrio vulnificus 204 assessed as inhibition of bacterial growth incubated for 16 to 20 hrs in presence of human serum; type: functional; settings: time 16-20 hrs
Enterococcus faecium [15] = assay: Bactericidal activity against Enterococcus faecium 10067 assessed as inhibition of bacterial growth incubated for 16 to 20 hrs in presence of human serum; type: functional; settings: time 16-20 hrs
Yersinia enterocolitica [16] = assay: Bactericidal activity against Yersinia enterocolitica 13999 assessed as inhibition of bacterial growth incubated for 16 to 20 hrs; type: functional; settings: time 16-20 hrs
Pseudomonas aeruginosa [17] = assay: Bactericidal activity against Pseudomonas aeruginosa 19660 assessed as inhibition of bacterial growth incubated for 16 to 20 hrs; type: functional; settings: time 16-20 hrs
Klebsiella pneumoniae [18] = assay: Bactericidal activity against Klebsiella pneumoniae TL 297 assessed as inhibition of bacterial growth incubated for 16 to 20 hrs in presence of human serum; type: functional; settings: time 16-20 hrs
Klebsiella oxytoca [19] = assay: Antibacterial activity against Klebsiella oxytoca 13985 assessed as inhibition of bacterial growth incubated for 16 to 20 hrs; type: functional; settings: time 16-20 hrs
Klebsiella pneumoniae [20] = assay: Antibacterial activity against Klebsiella pneumoniae BAA 2473 assessed as inhibition of bacterial growth incubated for 16 to 20 hrs; type: functional; settings: time 16-20 hrs
Acinetobacter baumannii [21] = assay: Antibacterial activity against Acinetobacter baumannii 10591 assessed as inhibition of bacterial growth incubated for 16 to 20 hrs in presence of human serum; type: functional; settings: time 16-20 hrs
Rhizopus arrhizus [22] = assay: Fungicidal activity against Rhizopus oryzae 34550 assessed as inhibition of fungal growth incubated for 72 hrs; type: functional
Enterococcus faecalis [23] = assay: Bactericidal activity against Enterococcus faecalis 10066 assessed as inhibition of bacterial growth incubated for 16 to 20 hrs; type: functional; settings: time 16-20 hrs
Vibrio vulnificus [24] = assay: Antibacterial activity against Vibrio vulnificus 204 assessed as inhibition of bacterial growth incubated for 16 to 20 hrs; type: functional; settings: time 16-20 hrs
Yersinia enterocolitica [25] = assay: Antibacterial activity against Yersinia enterocolitica 13999 assessed as inhibition of bacterial growth incubated for 16 to 20 hrs; type: functional; settings: time 16-20 hrs
Klebsiella oxytoca [26] = assay: Antibacterial activity against Klebsiella oxytoca 13985 assessed as inhibition of bacterial growth incubated for 16 to 20 hrs in presence of human serum; type: functional; settings: time 16-20 hrs
Escherichia coli [27] = assay: Bactericidal activity against Escherichia coli 10675 assessed as inhibition of bacterial growth incubated for 16 to 20 hrs in presence of human serum; type: functional; settings: time 16-20 hrs
Klebsiella oxytoca [28] = assay: Bactericidal activity against Klebsiella oxytoca 13985 assessed as inhibition of bacterial growth incubated for 16 to 20 hrs in presence of human serum; type: functional; settings: time 16-20 hrs
Acinetobacter baumannii [29] = assay: Bactericidal activity against Acinetobacter baumannii 10591 assessed as inhibition of bacterial growth incubated for 16 to 20 hrs; type: functional; settings: time 16-20 hrs
Salmonella typhimurium [30] = assay: Bactericidal activity against Salmonella typhimurium DT104 assessed as inhibition of bacterial growth incubated for 16 to 20 hrs; type: functional, Salmonella enterica subsp. enterica serovar Typhimurium; settings: Salmonella enterica, time 16-20 hrs
Klebsiella pneumoniae [31] = assay: Antibacterial activity against Klebsiella pneumoniae 10692 assessed as inhibition of bacterial growth incubated for 16 to 20 hrs; type: functional; settings: time 16-20 hrs
Rhizopus arrhizus [32] = assay: Fungicidal activity against Rhizopus oryzae 34550 assessed as inhibition of fungal growth incubated for 16 to 20 hrs in presence of human serum; type: functional; settings: time 16-20 hrs
Enterococcus faecium [33] = assay: Antibacterial activity against Enterococcus faecium 10067 assessed as inhibition of bacterial growth incubated for 16 to 20 hrs in presence of human serum; type: functional; settings: time 16-20 hrs
Staphylococcus aureus [34] = assay: Bactericidal activity against Staphylococcus aureus 10780 assessed as inhibition of bacterial growth incubated for 16 to 20 hrs; type: functional; settings: time 16-20 hrs
Salmonella typhimurium [35] = assay: Antibacterial activity against Salmonella typhimurium DT104 assessed as inhibition of bacterial growth incubated for 16 to 20 hrs; type: functional, Salmonella enterica subsp. enterica serovar Typhimurium; settings: Salmonella enterica, time 16-20 hrs
Klebsiella aerogenes [36] = assay: Antibacterial activity against Enterobacter aerogenes 15630 assessed as inhibition of bacterial growth incubated for 16 to 20 hrs; type: functional; settings: time 16-20 hrs
Klebsiella pneumoniae [37] = assay: Bactericidal activity against Klebsiella pneumoniae 10692 assessed as inhibition of bacterial growth incubated for 16 to 20 hrs; type: functional; settings: time 16-20 hrs
Pseudomonas aeruginosa [38] = assay: Bactericidal activity against Pseudomonas aeruginosa 19660 assessed as inhibition of bacterial growth incubated for 16 to 20 hrs in presence of human serum; type: functional; settings: time 16-20 hrs
Salmonella typhimurium [39] = assay: Antibacterial activity against Salmonella typhimurium DT104 assessed as inhibition of bacterial growth incubated for 16 to 20 hrs in presence of human serum; type: functional, Salmonella enterica subsp. enterica serovar Typhimurium; settings: Salmonella enterica, time 16-20 hrs
Klebsiella oxytoca [40] = assay: Bactericidal activity against Klebsiella oxytoca 13985 assessed as inhibition of bacterial growth incubated for 16 to 20 hrs; type: functional; settings: time 16-20 hrs
Salmonella enterica [41] = assay: Bactericidal activity against Salmonella enterica 15455 assessed as inhibition of bacterial growth incubated for 16 to 20 hrs in presence of human serum; type: functional; settings: time 16-20 hrs
Salmonella enterica [42] = assay: Antibacterial activity against Salmonella enterica 15455 assessed as inhibition of bacterial growth incubated for 16 to 20 hrs; type: functional; settings: time 16-20 hrs
Salmonella typhimurium [43] = assay: Bactericidal activity against Salmonella typhimurium DT104 assessed as inhibition of bacterial growth incubated for 16 to 20 hrs in presence of human serum; type: functional, Salmonella enterica subsp. enterica serovar Typhimurium; settings: Salmonella enterica, time 16-20 hrs
Pseudomonas aeruginosa [44] = assay: Antibacterial activity against Pseudomonas aeruginosa 19660 assessed as inhibition of bacterial growth incubated for 16 to 20 hrs in presence of human serum; type: functional; settings: time 16-20 hrs
Pseudomonas aeruginosa [45] = assay: Antibacterial activity against Pseudomonas aeruginosa 19660 assessed as inhibition of bacterial growth incubated for 16 to 20 hrs; type: functional; settings: time 16-20 hrs
Acinetobacter baumannii [46] = assay: Bactericidal activity against Acinetobacter baumannii 10591 assessed as inhibition of bacterial growth incubated for 16 to 20 hrs in presence of human serum; type: functional; settings: time 16-20 hrs
Klebsiella pneumoniae [47] = assay: Antibacterial activity against Klebsiella pneumoniae TL 297 assessed as inhibition of bacterial growth incubated for 16 to 20 hrs in presence of human serum; type: functional; settings: time 16-20 hrs
Rhizopus arrhizus [48] = assay: Antifungal activity against Rhizopus oryzae 34550 assessed as inhibition of fungal growth incubated for 16 to 20 hrs; type: functional; settings: time 16-20 hrs
[49] = tested on: Staphylococcus haemolyticus; assay: Antibacterial activity against Staphylococcus haemolyticus 15237 assessed as inhibition of bacterial growth incubated for 16 to 20 hrs; type: functional; settings: time 16-20 hrs
Escherichia coli [50] = assay: Bactericidal activity against Escherichia coli 10675 assessed as inhibition of bacterial growth incubated for 16 to 20 hrs; type: functional; settings: time 16-20 hrs
Escherichia coli [51] = assay: Antibacterial activity against Escherichia coli 10675 assessed as inhibition of bacterial growth incubated for 16 to 20 hrs in presence of human serum; type: functional; settings: time 16-20 hrs

MIC (Enterococcus faecalis [3]): 12.5 µM (≈ 4.79 µg/mL)
MIC (Salmonella enterica [5]): < 0.39 µM
MIC (Acinetobacter baumannii [6]): 6.25 µM (≈ 2.4 µg/mL)
MIC (Staphylococcus aureus [8]): 0.78 µM (≈ 0.299 µg/mL)
MIC (Escherichia coli [11]): 0.2 µM (≈ 0.0767 µg/mL)
MIC (Enterococcus faecium [13]): 50 µM (≈ 19.2 µg/mL)
MIC (Vibrio vulnificus [14]): < 0.39 µM
MIC (Klebsiella oxytoca [19]): < 0.39 µM
MIC (Klebsiella pneumoniae [20]): 800 µM (≈ 307 µg/mL)
MIC (Acinetobacter baumannii [21]): 3.13 µM
MIC (Vibrio vulnificus [24]): < 0.39 µM
MIC (Yersinia enterocolitica [25]): < 1.56 µM
MIC (Klebsiella oxytoca [26]): < 0.39 µM
MIC (Klebsiella pneumoniae [31]): 0.2 µM (≈ 0.0767 µg/mL)
MIC (Enterococcus faecium [33]): 100 µM
MIC (Salmonella typhimurium [35]): < 1.56 µM
MIC (Klebsiella aerogenes [36]): 0.1 µM (≈ 0.0383 µg/mL)
MIC (Salmonella typhimurium [39]): < 0.369 µM
MIC (Salmonella enterica [42]): < 1.56 µM
MIC (Pseudomonas aeruginosa [44]): 3.13 µM
MIC (Pseudomonas aeruginosa [45]): 3.13 µM (≈ 1.2 µg/mL)
MIC (Klebsiella pneumoniae [47]): 200 µM
MIC (Rhizopus arrhizus [48]): > 100 µM
MIC (Escherichia coli [51]): 0.1 µM
Structure (SMILES): C[C@@H](O)[C@H]1C(=O)N2C(C(=O)O)=C(S[C@@H]3CN[C@H](C(=O)N(C)C)C3)[C@H](C)[C@H]12 [MEROPENEM]
MBC (Vibrio vulnificus [1]): < 0.39 µM
MBC (Salmonella enterica [2]): < 1.56 µM
MBC (Vibrio vulnificus [4]): < 0.39 µM
MBC (Enterococcus faecium [7]): 100 µM (≈ 38.3 µg/mL)
MBC (Klebsiella aerogenes [9]): 6.25 µM (≈ 2.4 µg/mL)
MBC (Klebsiella pneumoniae [10]): 400 µM (≈ 153 µg/mL)
MBC [12]: < 1.56 µM
MBC (Enterococcus faecium [15]): 100 µM
MBC (Yersinia enterocolitica [16]): < 1.56 µM
MBC (Pseudomonas aeruginosa [17]): 6.25 µM (≈ 2.4 µg/mL)
MBC (Klebsiella pneumoniae [18]): 400 µM
MFC (Rhizopus arrhizus [22]): > 100 µM
MBC (Enterococcus faecalis [23]): 100 µM (≈ 38.3 µg/mL)
MBC (Escherichia coli [27]): 0.1 µM
MBC (Klebsiella oxytoca [28]): < 0.39 µM
MBC (Acinetobacter baumannii [29]): 6.25 µM (≈ 2.4 µg/mL)
MBC (Salmonella typhimurium [30]): > 100 µM
MFC (Rhizopus arrhizus [32]): 100 µM
MBC (Staphylococcus aureus [34]): 3.13 µM (≈ 1.2 µg/mL)
MBC (Klebsiella pneumoniae [37]): 0.2 µM (≈ 0.0767 µg/mL)
MBC (Pseudomonas aeruginosa [38]): 6.25 µM
MBC (Klebsiella oxytoca [40]): 0.1 µM (≈ 0.0383 µg/mL)
MBC (Salmonella enterica [41]): < 0.39 µM
MBC (Salmonella typhimurium [43]): < 0.39 µM
MBC (Acinetobacter baumannii [46]): 6.25 µM
MIC [49]: < 1.56 µM
MBC (Escherichia coli [50]): 0.2 µM (≈ 0.0767 µg/mL)
